In ChEMBL document CHEMBL5291721, “A preclinical secondary pharmacology resource illuminates target-adverse drug reaction associations of marketed drugs” (Nat Commun, 2023):

Key:
[1] = target: T1, Muscarinic acetylcholine receptor M2 (Homo sapiens, UniProt P08172); type: functional, cell-based
T1 sequence (P08172 whole entry): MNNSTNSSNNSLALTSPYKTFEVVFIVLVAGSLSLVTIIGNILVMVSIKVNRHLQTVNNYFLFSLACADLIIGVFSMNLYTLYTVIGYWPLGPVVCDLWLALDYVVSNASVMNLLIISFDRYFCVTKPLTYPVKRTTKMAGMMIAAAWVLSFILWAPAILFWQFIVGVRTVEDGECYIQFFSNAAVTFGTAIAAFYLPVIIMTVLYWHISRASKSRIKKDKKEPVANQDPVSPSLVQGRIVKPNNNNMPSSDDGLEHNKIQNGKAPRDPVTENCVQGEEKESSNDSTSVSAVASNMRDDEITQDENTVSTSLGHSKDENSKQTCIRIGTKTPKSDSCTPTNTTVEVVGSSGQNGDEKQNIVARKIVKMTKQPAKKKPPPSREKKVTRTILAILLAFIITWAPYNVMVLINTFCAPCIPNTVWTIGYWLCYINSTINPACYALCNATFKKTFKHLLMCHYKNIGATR

Vasopressin V2 receptor = Vasopressin V2 receptor (Homo sapiens, UniProt P30518)
[2] = target: T2, Alpha-1A adrenergic receptor (Homo sapiens, UniProt P35348); type: functional, cell-based
T2 sequence (P35348 whole entry): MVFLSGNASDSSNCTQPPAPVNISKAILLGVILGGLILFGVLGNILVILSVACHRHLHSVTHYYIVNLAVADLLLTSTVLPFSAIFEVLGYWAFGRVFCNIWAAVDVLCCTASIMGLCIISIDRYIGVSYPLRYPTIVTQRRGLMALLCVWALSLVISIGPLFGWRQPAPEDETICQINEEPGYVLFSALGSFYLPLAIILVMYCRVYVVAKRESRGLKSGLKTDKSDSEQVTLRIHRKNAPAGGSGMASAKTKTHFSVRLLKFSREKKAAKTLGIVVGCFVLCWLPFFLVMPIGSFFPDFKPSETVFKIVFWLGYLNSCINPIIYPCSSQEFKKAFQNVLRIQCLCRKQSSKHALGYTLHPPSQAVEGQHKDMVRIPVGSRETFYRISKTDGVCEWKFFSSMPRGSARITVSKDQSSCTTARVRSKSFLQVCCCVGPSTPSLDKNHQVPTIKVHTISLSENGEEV

[3] = target: 3',5'-cyclic-AMP phosphodiesterase 4D (Homo sapiens, UniProt Q08499); type: functional
D(3) dopamine receptor = D(3) dopamine receptor (Homo sapiens, UniProt P35462)
Adenosine receptor A1 = target: T3, Adenosine receptor A1 (Homo sapiens, UniProt P30542)
T3 sequence (P30542 whole entry): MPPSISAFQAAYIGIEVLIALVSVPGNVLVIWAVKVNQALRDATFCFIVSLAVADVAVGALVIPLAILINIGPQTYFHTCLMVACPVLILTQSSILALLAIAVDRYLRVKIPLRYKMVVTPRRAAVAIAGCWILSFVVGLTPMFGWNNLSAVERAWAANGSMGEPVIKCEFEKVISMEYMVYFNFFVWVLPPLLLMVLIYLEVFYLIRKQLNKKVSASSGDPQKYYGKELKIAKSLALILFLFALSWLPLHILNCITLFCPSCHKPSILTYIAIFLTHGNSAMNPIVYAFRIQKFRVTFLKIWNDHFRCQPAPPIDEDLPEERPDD

[4] = target: 5-hydroxytryptamine receptor 2B (Homo sapiens, UniProt P41595); type: functional, cell-based
Motilin receptor = Motilin receptor (Homo sapiens, UniProt O43193)
Thromboxane A2 receptor = target: T4, Thromboxane A2 receptor (Homo sapiens, UniProt P21731)
T4 sequence (P21731 whole entry): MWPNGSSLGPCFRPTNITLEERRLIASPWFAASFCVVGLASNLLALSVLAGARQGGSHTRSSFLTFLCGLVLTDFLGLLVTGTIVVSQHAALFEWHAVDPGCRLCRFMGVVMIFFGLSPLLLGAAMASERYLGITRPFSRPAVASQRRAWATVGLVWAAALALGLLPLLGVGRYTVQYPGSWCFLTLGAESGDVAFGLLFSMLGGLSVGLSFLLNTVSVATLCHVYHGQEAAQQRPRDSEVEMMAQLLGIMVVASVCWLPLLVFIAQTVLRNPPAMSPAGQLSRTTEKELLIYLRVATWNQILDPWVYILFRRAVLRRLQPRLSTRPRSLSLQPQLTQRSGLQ

Vasopressin V1a receptor = Vasopressin V1a receptor (Homo sapiens, UniProt P37288)
[5] = target: Beta-2 adrenergic receptor (Homo sapiens, UniProt P07550)
Melanocortin receptor 3 = Melanocortin receptor 3 (Homo sapiens, UniProt P41968)
Histamine H2 receptor = Histamine H2 receptor (Homo sapiens, UniProt P25021); type: functional, cell-based
[6] = target: T5, Alpha-2B adrenergic receptor (Homo sapiens, UniProt P18089)
T5 sequence (P18089 whole entry): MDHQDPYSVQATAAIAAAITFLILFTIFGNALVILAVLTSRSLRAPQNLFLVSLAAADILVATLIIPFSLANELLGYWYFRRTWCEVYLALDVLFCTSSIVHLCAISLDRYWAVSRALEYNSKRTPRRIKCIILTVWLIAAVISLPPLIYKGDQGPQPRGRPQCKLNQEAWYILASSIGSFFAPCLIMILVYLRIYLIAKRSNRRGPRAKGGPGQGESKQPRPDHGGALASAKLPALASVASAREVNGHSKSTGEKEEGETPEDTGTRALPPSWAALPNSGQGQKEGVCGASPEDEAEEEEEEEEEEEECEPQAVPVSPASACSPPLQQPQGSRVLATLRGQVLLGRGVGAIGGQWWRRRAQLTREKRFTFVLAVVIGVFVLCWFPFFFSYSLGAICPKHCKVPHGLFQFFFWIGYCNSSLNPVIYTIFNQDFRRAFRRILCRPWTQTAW
Note: assay procedure not described here.

Melanocortin receptor 3, sequence (P41968 whole entry): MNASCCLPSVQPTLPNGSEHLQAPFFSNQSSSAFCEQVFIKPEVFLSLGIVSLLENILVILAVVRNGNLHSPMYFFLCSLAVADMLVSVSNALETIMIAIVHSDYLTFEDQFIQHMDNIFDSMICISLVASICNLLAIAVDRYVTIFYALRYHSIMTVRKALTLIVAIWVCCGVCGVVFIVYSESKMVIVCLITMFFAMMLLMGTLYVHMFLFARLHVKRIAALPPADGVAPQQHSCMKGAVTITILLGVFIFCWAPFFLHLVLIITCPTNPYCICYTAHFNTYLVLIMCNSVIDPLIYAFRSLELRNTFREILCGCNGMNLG
Histamine H2 receptor, sequence (P25021 whole entry): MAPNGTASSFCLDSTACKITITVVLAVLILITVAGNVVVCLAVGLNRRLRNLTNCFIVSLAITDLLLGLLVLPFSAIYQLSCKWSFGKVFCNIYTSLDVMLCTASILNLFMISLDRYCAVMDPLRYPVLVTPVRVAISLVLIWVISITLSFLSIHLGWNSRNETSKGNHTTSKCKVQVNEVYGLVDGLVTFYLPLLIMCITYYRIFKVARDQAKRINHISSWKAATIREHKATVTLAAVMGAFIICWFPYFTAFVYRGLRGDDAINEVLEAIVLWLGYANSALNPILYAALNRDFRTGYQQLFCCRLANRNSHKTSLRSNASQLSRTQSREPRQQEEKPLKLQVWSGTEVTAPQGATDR
Beta-2 adrenergic receptor, sequence (P07550 whole entry): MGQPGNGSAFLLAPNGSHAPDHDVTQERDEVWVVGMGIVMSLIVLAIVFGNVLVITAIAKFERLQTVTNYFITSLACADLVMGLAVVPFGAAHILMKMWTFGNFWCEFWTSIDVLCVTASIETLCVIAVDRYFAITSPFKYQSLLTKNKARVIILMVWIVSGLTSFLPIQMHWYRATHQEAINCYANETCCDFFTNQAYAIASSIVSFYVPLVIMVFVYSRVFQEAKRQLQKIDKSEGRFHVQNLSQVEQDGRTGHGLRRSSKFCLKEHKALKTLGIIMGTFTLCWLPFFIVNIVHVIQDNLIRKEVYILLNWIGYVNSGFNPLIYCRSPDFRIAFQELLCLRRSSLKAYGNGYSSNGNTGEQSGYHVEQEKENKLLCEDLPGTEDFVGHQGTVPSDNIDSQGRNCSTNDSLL
Vasopressin V2 receptor, sequence (P30518 whole entry): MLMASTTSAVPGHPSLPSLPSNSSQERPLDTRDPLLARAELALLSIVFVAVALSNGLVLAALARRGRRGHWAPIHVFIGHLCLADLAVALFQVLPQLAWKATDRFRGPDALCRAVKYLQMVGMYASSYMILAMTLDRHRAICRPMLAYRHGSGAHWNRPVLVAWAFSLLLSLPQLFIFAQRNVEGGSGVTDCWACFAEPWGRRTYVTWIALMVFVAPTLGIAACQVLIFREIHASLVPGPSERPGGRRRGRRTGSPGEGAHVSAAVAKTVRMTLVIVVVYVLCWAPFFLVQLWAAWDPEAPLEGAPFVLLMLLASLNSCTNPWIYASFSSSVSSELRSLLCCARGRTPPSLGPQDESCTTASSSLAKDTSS
5-hydroxytryptamine receptor 2B, sequence (P41595 whole entry): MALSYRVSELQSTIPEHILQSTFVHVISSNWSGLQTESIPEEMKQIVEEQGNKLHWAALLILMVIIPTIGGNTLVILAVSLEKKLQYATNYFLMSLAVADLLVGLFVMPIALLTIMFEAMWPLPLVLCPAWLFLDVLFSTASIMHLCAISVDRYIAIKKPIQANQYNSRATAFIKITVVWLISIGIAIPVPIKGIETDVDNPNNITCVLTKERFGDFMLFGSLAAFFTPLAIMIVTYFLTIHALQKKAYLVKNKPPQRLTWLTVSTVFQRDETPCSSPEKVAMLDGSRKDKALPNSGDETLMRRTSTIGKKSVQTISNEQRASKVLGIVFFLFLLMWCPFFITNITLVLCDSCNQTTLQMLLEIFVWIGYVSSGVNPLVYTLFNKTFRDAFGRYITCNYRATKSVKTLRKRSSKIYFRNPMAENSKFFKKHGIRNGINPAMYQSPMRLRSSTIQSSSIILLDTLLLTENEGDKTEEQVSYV
3',5'-cyclic-AMP phosphodiesterase 4D, sequence (Q08499 whole entry): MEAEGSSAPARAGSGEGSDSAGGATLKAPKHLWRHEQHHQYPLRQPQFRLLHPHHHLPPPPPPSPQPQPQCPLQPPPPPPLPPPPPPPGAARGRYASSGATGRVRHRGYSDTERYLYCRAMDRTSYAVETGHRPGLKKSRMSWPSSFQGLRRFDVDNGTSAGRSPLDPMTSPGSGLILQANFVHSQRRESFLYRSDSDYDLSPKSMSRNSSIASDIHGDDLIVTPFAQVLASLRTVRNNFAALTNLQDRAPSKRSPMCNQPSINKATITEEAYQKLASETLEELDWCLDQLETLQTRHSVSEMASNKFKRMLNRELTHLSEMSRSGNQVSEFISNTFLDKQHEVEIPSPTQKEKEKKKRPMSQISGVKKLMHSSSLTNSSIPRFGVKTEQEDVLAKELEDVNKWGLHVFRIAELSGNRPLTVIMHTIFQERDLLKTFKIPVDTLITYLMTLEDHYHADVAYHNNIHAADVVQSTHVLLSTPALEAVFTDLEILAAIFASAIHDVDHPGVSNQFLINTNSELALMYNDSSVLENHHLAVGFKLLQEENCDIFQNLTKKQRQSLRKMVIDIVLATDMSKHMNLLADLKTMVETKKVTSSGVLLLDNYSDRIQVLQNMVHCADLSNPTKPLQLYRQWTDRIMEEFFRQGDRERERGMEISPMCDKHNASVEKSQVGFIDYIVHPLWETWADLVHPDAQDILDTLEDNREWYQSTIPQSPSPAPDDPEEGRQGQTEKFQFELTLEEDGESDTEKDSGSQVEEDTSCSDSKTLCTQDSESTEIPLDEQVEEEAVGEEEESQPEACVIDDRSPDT
D(3) dopamine receptor, sequence (P35462 whole entry): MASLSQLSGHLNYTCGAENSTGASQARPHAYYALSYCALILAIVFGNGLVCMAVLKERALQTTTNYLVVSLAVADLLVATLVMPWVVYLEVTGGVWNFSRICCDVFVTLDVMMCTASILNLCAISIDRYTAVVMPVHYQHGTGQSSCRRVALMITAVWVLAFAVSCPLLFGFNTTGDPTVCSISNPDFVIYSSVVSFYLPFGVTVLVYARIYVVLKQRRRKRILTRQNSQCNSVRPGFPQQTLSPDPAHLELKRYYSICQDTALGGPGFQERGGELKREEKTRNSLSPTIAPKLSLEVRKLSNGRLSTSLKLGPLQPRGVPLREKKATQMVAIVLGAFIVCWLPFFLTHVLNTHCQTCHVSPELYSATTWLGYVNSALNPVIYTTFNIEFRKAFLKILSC
Motilin receptor, sequence (O43193 whole entry): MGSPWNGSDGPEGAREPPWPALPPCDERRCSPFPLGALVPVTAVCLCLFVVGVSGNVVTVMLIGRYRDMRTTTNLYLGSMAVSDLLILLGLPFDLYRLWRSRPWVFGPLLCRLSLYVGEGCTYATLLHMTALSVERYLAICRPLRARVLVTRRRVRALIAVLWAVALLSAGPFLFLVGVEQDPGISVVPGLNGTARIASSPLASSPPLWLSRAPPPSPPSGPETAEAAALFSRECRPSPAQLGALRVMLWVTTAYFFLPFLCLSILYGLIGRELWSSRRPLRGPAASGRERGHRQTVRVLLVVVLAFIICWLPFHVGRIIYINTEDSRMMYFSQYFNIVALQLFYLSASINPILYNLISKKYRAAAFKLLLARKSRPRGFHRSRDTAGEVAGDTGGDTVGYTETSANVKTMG
Vasopressin V1a receptor, sequence (P37288 whole entry): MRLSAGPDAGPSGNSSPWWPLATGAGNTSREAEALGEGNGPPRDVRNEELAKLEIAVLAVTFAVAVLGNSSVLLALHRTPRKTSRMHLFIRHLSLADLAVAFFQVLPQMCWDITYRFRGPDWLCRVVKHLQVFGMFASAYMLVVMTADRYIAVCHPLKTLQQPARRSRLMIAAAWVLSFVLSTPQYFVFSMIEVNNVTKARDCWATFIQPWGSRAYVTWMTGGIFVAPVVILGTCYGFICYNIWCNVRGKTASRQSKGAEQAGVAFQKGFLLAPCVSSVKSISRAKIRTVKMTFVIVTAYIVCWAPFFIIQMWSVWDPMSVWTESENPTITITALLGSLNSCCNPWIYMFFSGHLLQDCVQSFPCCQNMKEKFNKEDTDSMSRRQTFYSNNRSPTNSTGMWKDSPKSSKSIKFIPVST

SMILES	AC50 [1] [µM]	AC50 (Vasopressin V2 receptor) [µM]	AC50 [2] [µM]	AC50 [3] [µM]	AC50 (D(3) dopamine receptor) [µM]	AC50 (Adenosine receptor A1) [µM]	AC50 [4] [µM]	AC50 (Motilin receptor) [µM]	AC50 (Thromboxane A2 receptor) [µM]	AC50 (Vasopressin V1a receptor) [µM]	AC50 [5] [µM]	AC50 (Melanocortin receptor 3) [µM]	AC50 (Histamine H2 receptor) [µM]	AC50 [6] [µM]
COc1ccc(C(=O)Nc2ccccc2CCC2CCCCN2C)cc1 (configuration not stated) [ENCAINIDE]	> 10	> 30	> 30	> 30	> 10	> 30	> 10	> 10	> 30	> 10	> 10	> 30	> 10	> 10
CCCCCNC(=N)N/N=C/c1c[nH]c2ccc(OC)cc12 [TEGASEROD]	> 10	20.3	2.1	19	3.5	> 30	> 30	16.3	8.39	21.3	7.36	11.5	> 30	3.37
CCOc1ccccc1OCC1CNCCO1 (configuration not stated) [VILOXAZINE]	> 10	> 30	> 30	> 30	> 10	> 30	> 10	> 10	> 30	> 10	7.6	> 30	> 10	> 10
